“Also recorded” adds a separate entry of the source.
What was measured:
SH-SY5Y cells [1] = test: MPP+-induced LDH leakage in SH-SY5Y cells (LDH assay); assay type: cell-based, human; settings: 2 h pre-treatment, MPP+ 36 h, MPP+ alone 209%, normalized to control
Description: (§1) Cells were pre-treated with BHDPC (3, 10 and 30 μM) for 2 h and then incubated with or without 1 mM MPP^+ for further 24 h. Cell viability was measured by the MTT assay.
Cell cytotoxicity was also determined by measuring the activity of LDH released into the incubation medium when cellular membranes were damaged. Cells were seeded at 96-well plates (5×10^3 cells/well). After treatment, the released LDH activity in the medium was measured according to the instructions of the Cytotoxicity Detection Kit (Roche Applied Science, Mannheim, Germany). Absorbance at 490 nm was measured using SpectraMax M5. All values of LDH released were normalized to the control group.
The protective activity of BHDPC was also confirmed by the lactate dehydrogenase (LDH) assay. SH-SY5Y cells were treated with BHDPC for 2 h before exposed to MPP^+ for 36 h.

[2] = system: PKA/CREB/Bcl2 signaling pathway; test: Western blotting of phosphorylated PKA, phosphorylated CREB and Bcl2 in SH-SY5Y cells; assay type: cell-based, human
Description: Cells were pre-treated with 30 μM BHDPC for 2 h.
Cells were pre-treated with BHDPC (3, 10 and 30 μM) for 2 h and then were collected at 120 min. […] The expression ratios of phosphorylated PKA, phosphorylated CREB and Bcl2 proteins as detected by Western blotting with specific antibodies were shown in FIGS. 8B, 8C and 8D respectively.
After treatment, SH-SY5Y cells were collected and washed three times with ice-cold PBS. Then the harvested cells were lysed on ice for 30 min in RIPA lysis buffer containing 1% PMSF and 1% Protease Inhibitor Cocktail and centrifuged at 12,500×g for 20 min at 4° C. The supernatant was collected and protein concentrations were determined using the BCA protein assay kit (Thermo Scientific Pierce). Aliquots of protein samples (30 μg) were boiled for 5 min at 95° C. and electrophoresed on SDS-PAGE (10% (w/v) polyacrylamide gel) and then transferred to a polyvinylidene difluoride (PVDF) membrane (Bio-Rad, Hercules, Calif.). Subsequently, the membrane was blocked with 5% (w/v) non-fat milk in PBST (PBS containing 0.1% Tween-20) for 2 h at room temperature. The blots were incubated overnight at 4° C. with primary antibodies. After washed with PBST for 20 min at room temperature, the membranes were further incubated with horseradish peroxidase-conjugated secondary antibodies for 2 h at room temperature. Finally, protein bands were visualized using an ECL plus Western blotting detection reagents (GE Healthcare, Piscataway, N.J., USA). The membranes were then scanned on a Bio-Rad ChemiDoc XRS Imaging System and the intensity of the protein bands were analyzed using the Bio-Rad Quantity One Software (4.5.2).
To determine which survival signaling pathway is regulated by BHDPC, SH-SY5Y cells were pre-treated with 30 μM BHDPC for 2 h, and then the phosphorylation of PKA at […] were examined by Western blot analysis. […] The inventors also determined whether BHDPC affected the phosphorylation of CREB. […] Bcl2 is a well-known anti-apoptotic protein. The inventors determined whether BHDPC affected the expression of Bcl2.

ROCK2 = ROCK2 (Homo sapiens, UniProt O75116); test: Kinase activity assay ROCK2; assay type: biochemical; settings: read-out: ROCK 2 IC50
Source text: ROCK has two isoforms (ROCK1 and ROCK2) sharing the same downstream proteins. Bioassay and molecular docking are used to compare the characteristics of BHDPC on ROCK. […] Through molecular docking and molecular dynamics simulation, the interaction between the inhibitor and ROCK1 was shown in FIG. 17.

SH-SY5Y cells [3] = test: MPP+-induced cytotoxicity in SH-SY5Y cells (MTT assay); assay type: cell-based, human; settings: 30 μM, 2 h pre-treatment, 1 mM MPP+ 24 h
Description: as §1
The human neuroblastoma SH-SY5Y cells were purchased from America Tissue Type Collection. The cells were maintained in DMEM medium supplemented with 10% fetal bovine serum and penicillin/streptomycin (100 U/mL; 100 μg/mL) in a 37° C., 5% CO2 incubator. All experiments were carried out 48 hours after the cells were seeded.
The percentage of surviving cells was estimated by determining the activity of mitochondrial dehydrogenases with 3(4,5-dimethylthiazol-2-yl)-2,5-diphenyltetrazolium bromide (MTT) assay. After drug treatment, cells were incubated at 37° C. for 4 h in 0.5 mg/mL MTT solution. The medium was then removed, and 100 μL of DMSO was added to each well to dissolve the violet formazan crystals. The absorbance of the samples was measured at a wavelength of 570 nm with 655 nm as a reference wavelength. All values were normalized to the control groups.
To test the neuroprotective effects of BHDPC, SH-SY5Y cells were pre-treated with gradually increasing concentrations of BHDPC for 2 h and then treated with 1 mM MPP^+ for 24 hours. Cell viability was measured using the MTT assay.

Sequence of ROCK2 (O75116 whole entry, species assumed, canonical isoform): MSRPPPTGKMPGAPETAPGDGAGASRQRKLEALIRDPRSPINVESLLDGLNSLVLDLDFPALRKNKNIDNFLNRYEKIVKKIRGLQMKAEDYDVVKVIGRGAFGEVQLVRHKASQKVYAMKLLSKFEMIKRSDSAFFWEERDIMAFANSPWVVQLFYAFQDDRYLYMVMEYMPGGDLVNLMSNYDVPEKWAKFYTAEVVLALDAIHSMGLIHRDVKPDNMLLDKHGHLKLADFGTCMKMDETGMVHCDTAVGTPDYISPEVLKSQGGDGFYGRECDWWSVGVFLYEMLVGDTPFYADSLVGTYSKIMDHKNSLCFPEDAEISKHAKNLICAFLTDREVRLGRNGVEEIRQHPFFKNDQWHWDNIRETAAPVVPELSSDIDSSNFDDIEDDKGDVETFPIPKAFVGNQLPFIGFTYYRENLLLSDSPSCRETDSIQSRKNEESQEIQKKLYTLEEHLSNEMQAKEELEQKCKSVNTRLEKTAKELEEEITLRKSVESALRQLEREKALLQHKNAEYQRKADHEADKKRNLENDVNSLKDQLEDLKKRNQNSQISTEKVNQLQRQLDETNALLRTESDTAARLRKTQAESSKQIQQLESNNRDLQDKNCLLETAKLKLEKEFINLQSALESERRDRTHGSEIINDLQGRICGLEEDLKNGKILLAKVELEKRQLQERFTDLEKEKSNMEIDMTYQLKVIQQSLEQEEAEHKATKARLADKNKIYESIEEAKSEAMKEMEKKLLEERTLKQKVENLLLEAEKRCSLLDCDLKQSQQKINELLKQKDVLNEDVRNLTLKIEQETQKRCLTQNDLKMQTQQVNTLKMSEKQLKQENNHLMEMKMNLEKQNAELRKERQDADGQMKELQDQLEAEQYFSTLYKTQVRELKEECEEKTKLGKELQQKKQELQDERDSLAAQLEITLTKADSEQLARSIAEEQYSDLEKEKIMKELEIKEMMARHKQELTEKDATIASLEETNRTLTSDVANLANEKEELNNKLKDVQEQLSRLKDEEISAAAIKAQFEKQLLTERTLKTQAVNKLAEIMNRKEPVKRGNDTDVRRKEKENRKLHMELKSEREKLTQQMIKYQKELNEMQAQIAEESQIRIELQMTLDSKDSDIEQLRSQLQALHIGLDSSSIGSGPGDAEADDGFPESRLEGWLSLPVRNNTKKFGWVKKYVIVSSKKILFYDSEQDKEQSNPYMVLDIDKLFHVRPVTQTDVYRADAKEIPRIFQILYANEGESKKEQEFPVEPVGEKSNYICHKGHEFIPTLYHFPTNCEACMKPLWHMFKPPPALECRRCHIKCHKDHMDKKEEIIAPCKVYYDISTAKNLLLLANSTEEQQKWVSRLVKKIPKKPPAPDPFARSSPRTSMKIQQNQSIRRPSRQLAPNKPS

Q: For `COc1cc(C2C(C(=O)OCc3ccccc3)=C(C)Nc3nnnn32)ccc1O` (stereo not drawn) [BHDPC, benzyl 7-(4-hydroxy-3-methoxyphenyl)-5-methyl-4,7-dihydrotetrazolo[1,5-a]pyrimidine-6-carboxylate], which “MPP+-induced LDH leakage” value (SH-SY5Y cells [1]; 3 μM) is on record?
A: 200%

Q: What about the “MPP+-induced LDH leakage” value (SH-SY5Y cells [1]; 10 μM) of the same compound?
A: 184%

Q: And the “MPP+-induced LDH leakage” value (SH-SY5Y cells [1]; 30 μM)?
A: 170%

Q: And the “phosphorylation intensity of PKA, time course” value ([2]; 30 μM, 0 to 120 min, particularly at 90 and 120 min)?
A: gradually increased; also recorded: activated PKA signaling pathway

Q: What about the “expression of Bcl2, dose-dependent” value ([2]; 3, 10 and 30 μM, 2 h) of the same compound?
A: up-regulated

Q: And the “phosphorylation intensity of CREB, dose-dependent” value ([2]; 3, 10 and 30 μM, 2 h)?
A: increased

Q: And the “phosphorylation intensity of PKA, dose-dependent” value ([2]; 3, 10 and 30 μM, 2 h)?
A: increased

Q: What about the IC50 (ROCK2) of the same compound?
A: 408 µM

Q: And the “MPP+-induced neuronal death (cell viability, MTT)” value (SH-SY5Y cells [3])?
A: prevented MPP^+-induced dopaminergic neuronal death

From patent US20160113931A1, “Method of treating and/or preventing neurodegenerative diseases” (University of Macau, priority 2014, published 2016)
